In brackets after ≈: the same amount, converted by molar mass. Non-standard residues stand in square brackets, D forms with d. Residues, ends and D or L forms follow the SMILES beside them. Dip = N[C@H](C(=O)O)C(c1ccccc1)c1ccccc1; 2Nal = N[C@@H](Cc1ccc2ccccc2c1)C(=O)O; d2Nal = N[C@H](Cc1ccc2ccccc2c1)C(=O)O; Dab = NCC[C@H](N)C(=O)O
How the values were obtained:
[1] = system: human red blood cells; parameters: unit not given beside the values
[2] = system: Pseudomonas aeruginosa (ATCC 27883); settings: ATCC 27883
[3] = system: Methicillin-resistant Staphylococcus aureus MRSA (ATCC BAA-1556); settings: ATCC BAA-1556
[4] = system: S. aureus ATCC 29213; settings: ATCC 29213
[5] = system: Escherichia coli (ATCC 25922); settings: ATCC 25922

Compound | HC50 [1] | MIC P. aeruginosa ATCC 27883 [2] [µg/mL] | MIC MRSA ATCC BAA-1556 [3] [µg/mL] | MIC S. aureus ATCC 29213 [4] [µg/mL] | MIC E. coli ATCC 25922 [5] [µg/mL]
NCCCC[C@@H]1NC(=O)[C@H](CCCCN)NC(=O)[C@H](CCCCN)NC(=O)[C@H](C(c2ccccc2)c2ccccc2)NC(=O)[C@H](C(c2ccccc2)c2ccccc2)NC(=O)[C@H](C(c2ccccc2)c2ccccc2)NC(=O)[C@H](CCCCN)NC1=O [IFX-014, c[Lys-Lys-Lys-Lys-Dip-Dip-Dip]] (cyclo([Dip][Dip][Dip]KKKK)) | 415 | >100 | 12.5 (≈ 10.6 µM) | 12.5 (≈ 10.6 µM) | >100
N=C(N)NCCC[C@H](NC(=O)[C@H](CCCNC(=N)N)NC(=O)[C@@H](N)CCCNC(=N)N)C(=O)N[C@H](C(=O)N[C@H](C(=O)N[C@H](C(=O)O)C(c1ccccc1)c1ccccc1)C(c1ccccc1)c1ccccc1)C(c1ccccc1)c1ccccc1 [IFX-002-1, NH2-Arg-Arg-Arg-Dip-Dip-Dip-OH] (H-RRR[Dip][Dip][Dip]-OH) | 265 | 25 (≈ 21.6 µM) | 3.1 (≈ 2.68 µM) | 3.1 (≈ 2.68 µM) | 6.2 (≈ 5.36 µM)
N=C(N)NCCC[C@H]1NC(=O)[C@@H](CCCNC(=N)N)NC(=O)[C@@H](CCCNC(=N)N)NC(=O)[C@@H](Cc2c[nH]c3ccccc23)NC(=O)[C@@H](Cc2c[nH]c3ccccc23)NC(=O)[C@@H](Cc2c[nH]c3ccccc23)NC(=O)[C@@H](Cc2c[nH]c3ccccc23)NC(=O)[C@@H](CCCNC(=N)N)NC1=O [IFX-032, c[arg-arg-arg-arg-trp-trp-trp-trp]] (cyclo([dR][dR][dR][dR][dW][dW][dW][dW])) | 230 | 25 (≈ 18.3 µM) | 6.2 (≈ 4.53 µM) | 6.2 (≈ 4.53 µM) | 25 (≈ 18.3 µM)
N=C(N)NCCC[C@H](NC(=O)[C@H](CCCNC(=N)N)NC(=O)[C@H](CCCNC(=N)N)NC(=O)[C@@H](N)CCCNC(=N)N)C(=O)N[C@@H](Cc1ccc2ccccc2c1)C(=O)N[C@@H](Cc1ccc2ccccc2c1)C(=O)N[C@@H](Cc1ccc2ccccc2c1)C(=O)O [IFX-009-1, NH2-Arg-Arg-Arg-Arg-NaI-NaI-NaI-OH] (H-RRRR[2Nal][2Nal][2Nal]-OH) | 260 | 12.5 (≈ 10.1 µM) | 3.1 (≈ 2.51 µM) | 3.1 (≈ 2.51 µM) | 12.5 (≈ 10.1 µM)
N=C(N)NCCC[C@H](NC(=O)[C@H](CCCNC(=N)N)NC(=O)[C@@H](N)CCCNC(=N)N)C(=O)N[C@H](C(=O)N[C@H](C(=O)N[C@@H](Cc1c[nH]c2ccccc12)C(=O)O)C(c1ccccc1)c1ccccc1)C(c1ccccc1)c1ccccc1 [IFX-022-1, NH2-R-R-R-Dip-Dip-Trp-OH] (H-RRR[Dip][Dip]W-OH) | 380 | 50 (≈ 44.7 µM) | 12.5 (≈ 11.2 µM) | 12.5 (≈ 11.2 µM) | 25 (≈ 22.3 µM)
N=C(N)NCCC[C@@H]1NC(=O)[C@H](CCN)NC(=O)[C@@H](Cc2ccc3ccccc3c2)NC(=O)[C@@H](Cc2ccc3ccccc3c2)NC(=O)[C@H](Cc2c[nH]c3ccccc23)NC(=O)[C@@H](CCCNC(=N)N)NC(=O)[C@H](CCCNC(=N)N)NC(=O)[C@H](CCN)NC(=O)[C@@H](CCCNC(=N)N)NC1=O [IFX-058, c[Dab-Arg-arg-Dab-Arg-arg-Trp-naI-naI]] (cyclo([Dab]R[dR][Dab]R[dR]W[d2Nal][d2Nal])) | 655 | 32 (≈ 22.8 µM) | 64 (≈ 45.5 µM) | 32 (≈ 22.8 µM) | 32 (≈ 22.8 µM)
N=C(N)NCCC[C@H](NC(=O)[C@H](CCCNC(=N)N)NC(=O)[C@@H](N)CCCNC(=N)N)C(=O)N[C@@H](CCCNC(=N)N)C(=O)N[C@H](C(=O)N[C@H](C(=O)O)C(c1ccccc1)c1ccccc1)C(c1ccccc1)c1ccccc1 [IFX-010-1, NH2-Arg-Arg-Arg-Arg-Dip-Dip-OH] (H-RRRR[Dip][Dip]-OH) | 360 | 50 (≈ 45.9 µM) | 12.5 (≈ 11.5 µM) | 12.5 (≈ 11.5 µM) | 50 (≈ 45.9 µM)
N=C(N)NCCC[C@H](NC(=O)[C@H](CCCNC(=N)N)NC(=O)[C@H](CCCNC(=N)N)NC(=O)[C@@H](N)CCCNC(=N)N)C(=O)N[C@@H](Cc1ccc2ccccc2c1)C(=O)N[C@@H](Cc1c[nH]c2ccccc12)C(=O)N[C@@H](Cc1ccc2ccccc2c1)C(=O)O [IFX-030-1, NH2-R-R-R-R-NaI-Trp-NaI-OH] (H-RRRR[2Nal]W[2Nal]-OH) | 430 | 25 (≈ 20.4 µM) | 6.2 (≈ 5.07 µM) | 6.2 (≈ 5.07 µM) | 12.5 (≈ 10.2 µM)
N=C(N)NCCC[C@@H]1NC(=O)[C@H](CCCNC(=N)N)NC(=O)[C@H](CCCNC(=N)N)NC(=O)[C@H](Cc2ccc3ccccc3c2)NC(=O)[C@H](Cc2ccc3ccccc3c2)NC(=O)[C@H](Cc2ccc3ccccc3c2)NC(=O)[C@H](CCCNC(=N)N)NC1=O [IFX-009, c[Arg-Arg-Arg-Arg-NaI-NaI-NaI]] (cyclo(RRRR[2Nal][2Nal][2Nal])) | 205 | 12.5 (≈ 10.3 µM) | 1.5 (≈ 1.23 µM) | 1.5 (≈ 1.23 µM) | 25 (≈ 20.6 µM)
N=C(N)NCCC[C@H](NC(=O)[C@H](CCCNC(=N)N)NC(=O)[C@@H](N)CCCNC(=N)N)C(=O)N[C@H](C(=O)N[C@@H](Cc1c[nH]c2ccccc12)C(=O)N[C@H](C(=O)O)C(c1ccccc1)c1ccccc1)C(c1ccccc1)c1ccccc1 [IFX-021-1, NH2-R-R-R-Dip-Trp-Dip-OH] (H-RRR[Dip]W[Dip]-OH) | 325 | 50 (≈ 44.7 µM) | 6.2 (≈ 5.54 µM) | 6.2 (≈ 5.54 µM) | 12.5 (≈ 11.2 µM)
N=C(N)NCCC[C@H](NC(=O)[C@H](CCCNC(=N)N)NC(=O)[C@@H](N)CCCNC(=N)N)C(=O)N[C@@H](Cc1c[nH]c2ccccc12)C(=O)N[C@H](C(=O)N[C@H](C(=O)O)C(c1ccccc1)c1ccccc1)C(c1ccccc1)c1ccccc1 [IFX-020-1, NH2-R-R-R-Trp-Dip-Dip-OH] (H-RRRW[Dip][Dip]-OH) | 310 | 25 (≈ 22.3 µM) | 6.2 (≈ 5.54 µM) | 6.2 (≈ 5.54 µM) | 6.2 (≈ 5.54 µM)
N=C(N)NCCC[C@H](NC(=O)[C@H](CCCNC(=N)N)NC(=O)[C@H](CCCNC(=N)N)NC(=O)[C@@H](N)CCCNC(=N)N)C(=O)N[C@@H](Cc1ccc2ccccc2c1)C(=O)N[C@@H](Cc1ccc2ccccc2c1)C(=O)O [IFX-011-1, NH2-Arg-Arg-Arg-Arg-NaI-NaI-OH] (H-RRRR[2Nal][2Nal]-OH) | 310 | >100 | 6.2 (≈ 5.98 µM) | 6.2 (≈ 5.98 µM) | 50 (≈ 48.2 µM)
N=C(N)NCCC[C@H](NC(=O)[C@H](CCCNC(=N)N)NC(=O)[C@@H](N)CCCNC(=N)N)C(=O)N[C@@H](CCCNC(=N)N)C(=O)N[C@H](C(=O)N[C@H](C(=O)N[C@H](C(=O)O)C(c1ccccc1)c1ccccc1)C(c1ccccc1)c1ccccc1)C(c1ccccc1)c1ccccc1 [IFX-008-1, NH2-Arg-Arg-Arg-Arg-Dip-Dip-Dip-OH] (H-RRRR[Dip][Dip][Dip]-OH) | 210 | 6.2 (≈ 4.72 µM) | 3.1 (≈ 2.36 µM) | 3.1 (≈ 2.36 µM) | 6.2 (≈ 4.72 µM)
N=C(N)NCCC[C@@H]1NC(=O)[C@H](CCCNC(=N)N)NC(=O)[C@H](CCCNC(=N)N)NC(=O)[C@H](C(c2ccccc2)c2ccccc2)NC(=O)[C@H](Cc2c[nH]c3ccccc23)NC(=O)[C@H](C(c2ccccc2)c2ccccc2)NC(=O)[C@H](CCCNC(=N)N)NC1=O [IFX-027, c[Arg-Arg-Arg-Arg-Dip-Trp-Dip]] (cyclo(RRRR[Dip]W[Dip])) | 860 |  |  |  | 
N=C(N)NCCC[C@@H]1NC(=O)[C@H](CCCNC(=N)N)NC(=O)[C@H](Cc2c[nH]c3ccccc23)NC(=O)[C@H](C(c2ccccc2)c2ccccc2)NC(=O)[C@H](C(c2ccccc2)c2ccccc2)NC(=O)[C@H](CCCNC(=N)N)NC1=O [IFX-022, c[Arg-Arg-Arg-Dip-Dip-Trp]] (cyclo([Dip][Dip]WRRR)) | 215 |  |  |  | 
N=C(N)NCCC[C@@H]1NC(=O)[C@H](CCCNC(=N)N)NC(=O)[C@H](Cc2ccc3ccccc3c2)NC(=O)[C@H](Cc2ccc3ccccc3c2)NC(=O)[C@H](Cc2c[nH]c3ccccc23)NC(=O)[C@H](CCCNC(=N)N)NC1=O [IFX-023, c[Arg-Arg-Arg-Trp-NaI-NaI]] (cyclo(RRRW[2Nal][2Nal])) | 175 |  |  |  | 
N=C(N)NCCC[C@@H]1NC(=O)[C@H](CCCNC(=N)N)NC(=O)[C@H](Cc2ccc3ccccc3c2)NC(=O)[C@H](Cc2c[nH]c3ccccc23)NC(=O)[C@H](Cc2ccc3ccccc3c2)NC(=O)[C@H](CCCNC(=N)N)NC1=O [IFX-024, c[Arg-Arg-Arg-NaI-Trp-NaI]] (cyclo(RRR[2Nal]W[2Nal])) | 250 |  |  |  | 
N=C(N)NCCC[C@@H]1NC(=O)[C@H](CCCNC(=N)N)NC(=O)[C@H](Cc2c[nH]c3ccccc23)NC(=O)[C@H](Cc2ccc3ccccc3c2)NC(=O)[C@H](Cc2ccc3ccccc3c2)NC(=O)[C@H](CCCNC(=N)N)NC1=O [IFX-025, c[Arg-Arg-Arg-NaI-NaI-Trp]] (cyclo(RRR[2Nal][2Nal]W)) | 190 |  |  |  | 
N=C(N)NCCC[C@@H]1NC(=O)[C@H](CCCNC(=N)N)NC(=O)[C@H](CCCNC(=N)N)NC(=O)[C@H](Cc2ccc3ccccc3c2)NC(=O)[C@H](Cc2ccc3ccccc3c2)NC(=O)[C@H](Cc2c[nH]c3ccccc23)NC(=O)[C@H](CCCNC(=N)N)NC1=O [IFX-029, c[Arg-Arg-Arg-Arg-Trp-NaI-NaI]] (cyclo(RRRRW[2Nal][2Nal])) | 200 |  |  |  | 
